Publication PMC8373216, “Development and Preclinical Evaluation of New Inhaled Lipoglycopeptides for the Treatment of Persistent Pulmonary Methicillin-Resistant Staphylococcus aureus Infections” (Antimicrobial Agents and Chemotherapy, 2021)
Converted amounts (≈) assume the structure as drawn. Read-outs that look alike come from different tables or passages of the source.

How the values were obtained:
[1] = system: Staphylococcus epidermidis; test: Expanded panel broth microdilution MIC/MBC; type: cell-based; conditions: for MIC: Staphylococcus epidermidis
[2] = system: Staphylococcus haemolyticus; test: Expanded panel broth microdilution MIC; type: cell-based
Staphylococcus hominis = test: Expanded panel broth microdilution MIC; type: cell-based
Enterococcus faecalis = test: Expanded panel broth microdilution MIC/MBC; type: cell-based
Streptococcus pneumoniae = test: Expanded panel broth microdilution MIC/MBC; type: cell-based
Streptococcus pyogenes = test: Expanded panel broth microdilution MIC/MBC; type: cell-based
[3] = system: Streptococcus constellatus; test: Expanded panel broth microdilution MIC; type: cell-based
Streptococcus mitis = test: Expanded panel broth microdilution MIC/MBC; type: cell-based; conditions: for MIC: Streptococcus mitis
Streptococcus oralis = test: Expanded panel broth microdilution MIC; type: cell-based
Clostridioides difficile = test: Expanded panel broth microdilution MIC; type: cell-based
[4] = system: Peptostreptococcus anaerobius; test: Expanded panel broth microdilution MIC; type: cell-based
S. aureus = test: Expanded panel broth microdilution MIC/MBC; conditions: for MIC: Staphylococcus aureus

For CCCCCCCCCCNCCN[C@@]1(C)C[C@H](O[C@H]2[C@H](Oc3c4cc5cc3Oc3ccc(cc3Cl)[C@@H](O)[C@@H](NC(=O)[C@@H](CC(C)C)NC)C(=O)N[C@@H](CC(N)=O)C(=O)N[C@H]5C(=O)N[C@H]3C(=O)N[C@H](C(=O)N[C@H](C(=O)O)c5cc(O)c(CNCP(=O)(O)O)c(O)c5-c5cc3ccc5O)[C@H](O)c3ccc(c(Cl)c3)O4)O[C@H](CO)[C@@H](O)[C@@H]2O)O[C@@H](C)[C@H]1O [Telavancin, telavancin], the “MIC:MBC” value ([1]; S. epidermidis MRSE, MBC on one organism) was 1, the MIC ([1]; ATCC49134, S. epidermidis ATCC 49134, MSSE) was 0.12 µg/mL (≈ 0.0684 µM) and the MIC ([1]; MRSE, S. epidermidis MMX 762, MRSE) was 0.12 µg/mL (≈ 0.0684 µM). For the same compound, the MIC ([1]; MRSE, S. epidermidis MMX 5145, MRSE) was 0.03 µg/mL (≈ 0.0171 µM), the MIC ([1]; MRSE, read-out: MIC (median), S. epidermidis MRSE, 2 isolates) was 0.12 µg/mL (≈ 0.0684 µM) and the MIC ([1]; S. epidermidis MSSE, 1 isolate) was 0.12 µg/mL (≈ 0.0684 µM). For the same compound, the MIC [2] was 0.06 µg/mL (≈ 0.0342 µM), the MIC ([2]; ATCC29970) was 0.06 µg/mL (≈ 0.0342 µM) and the MIC (Staphylococcus hominis) was 0.06 µg/mL (≈ 0.0342 µM). For the same compound, the MIC (Staphylococcus hominis; ATCC27844) was 0.06 µg/mL (≈ 0.0342 µM), the “MIC:MBC” value (Enterococcus faecalis; E. faecalis VSE, MBC on one organism) was over 8 and the “MIC:MBC” value (Enterococcus faecalis; E. faecalis VanA VRE) was 8. For the same compound, the MIC (Enterococcus faecalis; E. faecalis VanA VRE, 1 isolate) was 1 µg/mL (≈ 0.57 µM), the MIC (Enterococcus faecalis; Enterococcus faecalis) was 0.25 µg/mL (≈ 0.142 µM) and the MIC (Enterococcus faecalis; Enterococcus faecalis, ATCC29212) was 0.12 µg/mL (≈ 0.0684 µM). The MIC (Enterococcus faecalis; Enterococcus faecalis, VRE) was 1 µg/mL (≈ 0.57 µM), the MIC (Enterococcus faecalis; Enterococcus faecalis, read-out: MIC (median)) was 0.19 µg/mL (≈ 0.108 µM) and the “MIC:MBC” value (Streptococcus pneumoniae; S. pneumoniae PISP, MBC on one organism) was 1. The MIC (Streptococcus pneumoniae; S. pneumoniae PRSP, 1 isolate) was 0.03 µg/mL (≈ 0.0171 µM), the MIC (Streptococcus pneumoniae; Streptococcus pneumoniae) was 0.015 µg/mL (≈ 0.00854 µM) and the MIC (Streptococcus pneumoniae; Streptococcus pneumoniae, ATCC49619) was 0.03 µg/mL (≈ 0.0171 µM). It also gave an MIC (Streptococcus pneumoniae; Streptococcus pneumoniae, PRSP) of 0.03 µg/mL (≈ 0.0171 µM), an MIC (Streptococcus pneumoniae; Streptococcus pneumoniae, read-out: MIC (median)) of 0.02 µg/mL (≈ 0.0114 µM) and an MIC (Streptococcus pyogenes; S. pyogenes MMX 946, ermR) of 0.06 µg/mL (≈ 0.0342 µM). The “MIC:MBC” value (Streptococcus pyogenes; S. pyogenes ermR) was 1, the MIC (Streptococcus pyogenes; S. pyogenes ermR, 1 isolate) was 0.06 µg/mL (≈ 0.0342 µM) and the MIC (Streptococcus pyogenes; Streptococcus pyogenes) was 0.06 µg/mL (≈ 0.0342 µM). For the same compound, the MIC (Streptococcus pyogenes; Streptococcus pyogenes, ATCC19615) was 0.06 µg/mL (≈ 0.0342 µM), the MIC (Streptococcus pyogenes; Streptococcus pyogenes, read-out: MIC (median)) was 0.06 µg/mL (≈ 0.0342 µM) and the MIC ([3]; S. constellatus AGS, 1 isolate) was 0.03 µg/mL (≈ 0.0171 µM). For the same compound, the MIC ([3]; Streptococcus constellatus) was 0.03 µg/mL (≈ 0.0171 µM), the “MIC:MBC” value (Streptococcus mitis; S. mitis MGS, MBC on one organism) was 1 and the MIC (Streptococcus mitis) was 0.03 µg/mL (≈ 0.0171 µM). The MIC (Streptococcus mitis; ATCC49456) was 0.06 µg/mL (≈ 0.0342 µM), the MIC (Streptococcus mitis; read-out: MIC (median)) was 0.05 µg/mL (≈ 0.0285 µM) and the MIC (Streptococcus oralis; S. oralis MGS, 1 isolate) was 0.06 µg/mL (≈ 0.0342 µM). The MIC (Streptococcus oralis; Streptococcus oralis) was 0.06 µg/mL (≈ 0.0342 µM), the MIC (Clostridioides difficile; ATCCBAA1805, C. difficile ATCC BAA-1805, ribo 027) was 0.12 µg/mL (≈ 0.0684 µM) and the MIC (Clostridioides difficile; ATCCBAA1870, C. difficile ATCC BAA-1870, NAP1;ribo 027) was 0.12 µg/mL (≈ 0.0684 µM). The MIC (Clostridioides difficile; C. difficile ATTC 700057, toxAB-) was 0.12 µg/mL (≈ 0.0684 µM), the MIC (Clostridioides difficile; C. difficile NAP1;ribo 027, 1 isolate) was 0.12 µg/mL (≈ 0.0684 µM) and the MIC (Clostridioides difficile; C. difficile ribo 027, 1 isolate) was 0.12 µg/mL (≈ 0.0684 µM). The MIC (Clostridioides difficile; C. difficile toxAB-, 1 isolate) was 0.12 µg/mL (≈ 0.0684 µM), the MIC [4] was 0.03 µg/mL (≈ 0.0171 µM) and the MIC ([4]; ATCC27337) was 0.03 µg/mL (≈ 0.0171 µM). The “MIC:MBC” value (S. aureus; S. aureus MRSA, MBC median of n = 5) was 1, the “MIC:MBC” value (S. aureus; S. aureus MSSA, MBC on one organism) was 1 and the “MIC:MBC” value (S. aureus; S. aureus VISA, MBC median of n = 2) was 1. For the same compound, the “MIC:MBC” value (S. aureus; S. aureus hVISA, MBC on one organism) was 1, the MIC (S. aureus; ATCC13709 / MSSA, S. aureus ATCC 13709, MSSA) was 0.12 µg/mL (≈ 0.0684 µM) and the MIC (S. aureus; ATCC29213 / MSSA, S. aureus ATCC 29213, MSSA) was 0.06 µg/mL (≈ 0.0342 µM). For the same compound, the MIC (S. aureus; ATCC43300 / MRSA, S. aureus ATCC 43300, MRSA) was 0.06 µg/mL (≈ 0.0342 µM), the MIC (S. aureus; ATCCBAA1556|MRSA|USA300, S. aureus ATCC BAA-1556, MRSA, USA300 (expanded panel)) was 0.06 µg/mL (≈ 0.0342 µM) and the MIC (S. aureus; ATCCBAA1756|MRSA|NRS384|USA300, S. aureus NRS 384, ATCC BAA-1756, MRSA, USA300) was 0.06 µg/mL (≈ 0.0342 µM). The MIC (S. aureus; MRSA / NRS123 / USA400, S. aureus NRS123, MRSA, USA400) was 0.06 µg/mL (≈ 0.0342 µM), the MIC (S. aureus; MRSA / NRS725 / USA300, S. aureus NRS725, MRSA, USA300) was 0.06 µg/mL (≈ 0.0342 µM) and the MIC (S. aureus; MRSA / USA300, S. aureus MMX 3982, MRSA, USA300) was 0.06 µg/mL (≈ 0.0342 µM). For the same compound, the MIC (S. aureus; MRSA, S. aureus MMX 5715, MRSA) was 0.06 µg/mL (≈ 0.0342 µM), the MIC (S. aureus; MRSA, S. aureus MMX 7899, MRSA) was 0.06 µg/mL (≈ 0.0342 µM) and the MIC (S. aureus; MRSA, S. aureus MMX 7900, MRSA) was 0.06 µg/mL (≈ 0.0342 µM). The MIC (S. aureus; MRSA, S. aureus MMX 7901, MRSA) was 0.03 µg/mL (≈ 0.0171 µM), the MIC (S. aureus; MRSA, S. aureus MMX 7902, MRSA) was 0.06 µg/mL (≈ 0.0342 µM) and the MIC (S. aureus; MRSA, S. aureus MMX 7903, MRSA) was 0.06 µg/mL (≈ 0.0342 µM). The MIC (S. aureus; MRSA, read-out: MIC (median), S. aureus MRSA, 12 isolates) was 0.06 µg/mL (≈ 0.0342 µM), the MIC (S. aureus; MSSA, S. aureus MMX 7907, MSSA) was 0.06 µg/mL (≈ 0.0342 µM) and the MIC (S. aureus; MSSA, S. aureus MMX 7908, MSSA) was 0.12 µg/mL (≈ 0.0684 µM). It also gave an MIC (S. aureus; MSSA, read-out: MIC (median), S. aureus MSSA, 4 isolates) of 0.09 µg/mL (≈ 0.0513 µM), an MIC (S. aureus; NRS1 / VISA, S. aureus NRS1, VISA, Mu50) of 0.5 µg/mL (≈ 0.285 µM) and an MIC (S. aureus; NRS2, S. aureus NRS2, hVISA;Mu3) of 0.12 µg/mL (≈ 0.0684 µM). It also gave an MIC (S. aureus; NRS4 / VISA, S. aureus NRS4, VISA) of 0.25 µg/mL (≈ 0.142 µM), an MIC (S. aureus; NRS13 / VISA, S. aureus NRS13, VISA) of 0.12 µg/mL (≈ 0.0684 µM) and an MIC (S. aureus; NRS22 / VISA, S. aureus NRS22, VISA) of 0.5 µg/mL (≈ 0.285 µM). It also gave an MIC (S. aureus; NRS23, S. aureus NRS23, hVISA) of 0.25 µg/mL (≈ 0.142 µM), an MIC (S. aureus; NRS52 / VISA, S. aureus NRS52, VISA) of 0.25 µg/mL (≈ 0.142 µM) and an MIC (S. aureus; VISA, read-out: MIC (median), S. aureus VISA, 5 isolates) of 0.25 µg/mL (≈ 0.142 µM). It also gave an MIC (S. aureus; read-out: MIC (median), S. aureus hVISA, 2 isolates) of 0.19 µg/mL (≈ 0.108 µM).
